These results are taken from patent US20250164502A1, “Mutant Human Nax Proteins and Screening Methods” (Genentech, Inc., priority 2021, published 2025).

In test [1] the target is T1, human NaX-QTT (Homo sapiens, UniProt Q01118, F724Q/I1189T/I1492T).
T1 construct: expressed in transfected cells; host or cells: Xenopus laevis oocytes injected with in vitro transcribed capped RNA
The test can be described thus: Two-electrode voltage-clamp of Xenopus laevis oocytes expressing human NaX-QTT with blockers or multivalent cations. It is filed as cell-based. Particulars: for inhibition of NaX-QTT currents: oocytes. The procedure: FIGS. 5A-C show pharmacology of the human NaX-QTT channel. FIG. 5A, left and middle panels, show representative I-V currents from HEK293 cells expressing human NaX-QTT with indicated extracellular monovalent cations with or without indicated amounts of CaCl2 in the extracellular solution. Voltage ramp from −80 to +80 mV was applied.
(§1) Oocytes were prepared as previously described^68. Healthy-looking stage V-VI oocytes were injected with 2.5-40 ng of RNA (in 5-41 nL) using a Nanoliter 2010 injector (World Precision Instruments). When excluding one or more construct, an equivalent volume of nuclease-free water was added to maintain a constant RNA concentration across different construct combinations. Injected oocytes were kept at 18° C., 140 rpm, in ND96 supplemented with 50 μg/mL gentamicin and 50 μg/mL tetracycline (in mM: 96 NaCl, 2 KCl, 1 MgCl2, 1.8 CaCl2), 2.5 sodium pyruvate, 0.5 theophylline, 5 HEPES; pH 7.4 with NaOH) for two to five days. Two-electrode voltage-clamp measurements were performed at room temperature using a Warner OC-725C Oocyte Clamp amplifier (Warner Instrument Corp, USA) and under constant perfusion with ND96 solution (in mM: 96 NaCl, 2 KCl, 1 MgCl2, 1.8 CaCl2, 5 HEPES; pH 7.4 with NaOH). For ion selectivity experiments, external solutions contained 115 mM of test cations as chloride salts, 1.2 mM CaCl2, 2 mM MgCl2, 5 mM HEPES (pH 7.4 with the corresponding hydroxide). Data acquisition was performed using a Digidata 1550 digitizer (Molecular devices; sampled at 10 kHz) and pCLAMP 10 software (Molecular Devices). Microelectrodes from borosilicate glass capillaries (Harvard Apparatus) were prepared to have resistances around 0.2-1.0 MQ2 using a P-1000 Flaming/Brown Micropipette Puller System (Sutter Instrument) and backfilled with 3 M KCl. Aconitine and veratridine (Alomone Labs) were dissolved in DMSO to make 50 mM stocks, and were further diluted to 300 and 100 μM in ND96 for electrophysiological experiments. Other NaV activators (Alomone Labs; FIGS. 8A-D) were dissolved in water to make stock solutions. The voltage dependence of ion current was determined using a protocol consisting of steps from a holding potential of 0 mV to voltages ranging from +80 to −100 mV for 1 s in 20 mV increment.
(In general: In two-electrode clamp one electrode senses voltage and the other passes current.)

The subject of test [2] is Xenopus laevis oocytes. Nature of the test: Current amplitude of Xenopus laevis oocytes expressing the constructs (function of construct). Particulars: voltage-step protocols. It is filed as cell-based. On the procedure: (*p<0.05; **p<0.01; ****p<0.0001; one-way ANOVA, Dunnett's test against NaX.)
as §1, with “Data acquisition was performed using a Digidata 1550 digitizer (Molecular devices; sampled at 10 kHz) and pCLAMP 10 software (Molecular Devices). Microelectrodes from borosilicate glass capillaries (Harvard Apparatus) were prepared to have resistances around 0.2-1.0 MQ2 using a P-1000 Flaming/Brown Micropipette Puller System (Sutter Instrument) and backfilled with 3 M KCl. Aconitine and veratridine (Alomone Labs) were dissolved in DMSO to make 50 mM stocks, and were further diluted to 300 and 100 μM in ND96 for electrophysiological experiments. Other NaV activators (Alomone Labs; FIGS. 8A-D) were dissolved in water to make stock solutions.” left out, “increment. […]” for “increment.”

In test [3] the test system is HEK293T cells. The test can be described thus: Whole-cell patch clamp of HEK293T cells expressing NaX-QTT, reversal potential and ion selectivity. It is filed as cell-based, human. The procedure:
HEK293T cells expressing NaX- or NaX-QTT-eGFP-2×FLAG were seeded on glass cover slips an hour before whole-cell patch-clamping experiments. For a more physiological condition (FIGS. 4D and 7B), the extracellular solution contained 150 mM NaCl, 5 mM KCl, 0.5 mM CaCl2, 1.2 mM MgCl2, 10 mM HEPES, and 13 mM D-(+)-glucose (pH 7.4) with NaOH, ˜320 mOsm/L, and the intracellular solution contained 140 mM CsCl, 10 mM CsF, 5 mM EGTA, 10 mM HEPES, and 2 mM Na2ATP (pH 7.2) with CsOH, ˜304 mOsm/L. To determine if NaX-QTT was cation-permeable, we first substituted all extracellular cations with NMDG^+ (FIG. 4E). Extracellular solution contained 150 mM NMDG and 10 mM HEPES (D-(+)-glucose was added accordingly to achieve osmolarity ˜325 mOsm/L and pH was adjusted to 7.4 with hydrochloric acid). To determine if NaX-QTT was anion-permeable, we substituted all Cl^− ions in both intra- and extracellular solutions with the large anion methanesulfonate (MS^−) (FIG. 15C). The extracellular solution contained 150 mM NaMS and 10 mM HEPES (D-(+)-glucose was added accordingly to achieve osmolarity ˜325 mOsm/L, and pH was adjusted to 7.4 with NaOH). The intracellular solution contained 136 mM NaMS, 10 mM NaF, 5 mM EGTA, 10 mM HEPES, and 2 mM Na2ATP (pH 7.2 with NaOH, ˜309 mOsm/L). The extracellular NMDG solution contained 150 NMDG and 10 mM HEPES (D-(+)-glucose was added accordingly to achieve osmolarity ˜325 mOsm/L, and pH was adjusted to 7.4 with methanesulfonic acid).
For ion-selectivity experiments (FIGS. 4E and 5A) (i) involving monovalent cations, the extracellular solution contained 150 mM XCl, 10 mM HEPES, and D-(+)-glucose was added accordingly to achieve osmolarity ˜325 mOsm/L, and the pH was adjusted to 7.4 with XOH, where X indicates the cation of interest (Na^+, K^+, Li+ or Cs+); (ii) involving Ca^2+, the extracellular solution contained 110 mM CaCl2, 10 mM HEPES, and D-(+)-glucose was added accordingly to achieve osmolarity ˜325 mOsm/L, and the pH was adjusted to 7.4 with Ca(OH)2; (iii) the intracellular solution contained 136 mM NaCl, 10 mM NaF, 5 mM EGTA, 10 mM HEPES, and 2 mM Na2ATP (pH 7.2) with NaOH, ˜309 mOsm/L.
For data analysis, raw current traces were typically filtered using 8-pole Bessel low-pass filter at 500-800 Hz. […] For ion-selectivity experiments performed with Na^+ intracellular solution (FIGS. 4E and 5A), liquid junction potential (LJP) was measured with reference to the Na^+ intracellular solution and corrected after recording. Relative ion permeabilities (PNa/PX) were calculated using the equation PX/PNa=[Na^+]IC exp(ErevF/RT)/[X^+]EC (X=Na, K, Li or Cs), where F is Faraday's constant, R is the gas constant, […], and Erevs were measured from the −80- to +80-m V ramp (corrected for LJP).
(In general: Patch clamp records ionic current or voltage across a cell membrane.)

For test [4] the following is noted: reported for pathogenic mutation; cited from earlier work.
Test [5] concerns Xenopus laevis oocytes. The test can be described thus: Voltage dependence of activation and steady-state inactivation of mutant NaV channels. It is filed as cell-based. Particulars: NaV1.7 mutant.

T1 sequence (Q01118 whole entry F724Q/I1189T/I1492T): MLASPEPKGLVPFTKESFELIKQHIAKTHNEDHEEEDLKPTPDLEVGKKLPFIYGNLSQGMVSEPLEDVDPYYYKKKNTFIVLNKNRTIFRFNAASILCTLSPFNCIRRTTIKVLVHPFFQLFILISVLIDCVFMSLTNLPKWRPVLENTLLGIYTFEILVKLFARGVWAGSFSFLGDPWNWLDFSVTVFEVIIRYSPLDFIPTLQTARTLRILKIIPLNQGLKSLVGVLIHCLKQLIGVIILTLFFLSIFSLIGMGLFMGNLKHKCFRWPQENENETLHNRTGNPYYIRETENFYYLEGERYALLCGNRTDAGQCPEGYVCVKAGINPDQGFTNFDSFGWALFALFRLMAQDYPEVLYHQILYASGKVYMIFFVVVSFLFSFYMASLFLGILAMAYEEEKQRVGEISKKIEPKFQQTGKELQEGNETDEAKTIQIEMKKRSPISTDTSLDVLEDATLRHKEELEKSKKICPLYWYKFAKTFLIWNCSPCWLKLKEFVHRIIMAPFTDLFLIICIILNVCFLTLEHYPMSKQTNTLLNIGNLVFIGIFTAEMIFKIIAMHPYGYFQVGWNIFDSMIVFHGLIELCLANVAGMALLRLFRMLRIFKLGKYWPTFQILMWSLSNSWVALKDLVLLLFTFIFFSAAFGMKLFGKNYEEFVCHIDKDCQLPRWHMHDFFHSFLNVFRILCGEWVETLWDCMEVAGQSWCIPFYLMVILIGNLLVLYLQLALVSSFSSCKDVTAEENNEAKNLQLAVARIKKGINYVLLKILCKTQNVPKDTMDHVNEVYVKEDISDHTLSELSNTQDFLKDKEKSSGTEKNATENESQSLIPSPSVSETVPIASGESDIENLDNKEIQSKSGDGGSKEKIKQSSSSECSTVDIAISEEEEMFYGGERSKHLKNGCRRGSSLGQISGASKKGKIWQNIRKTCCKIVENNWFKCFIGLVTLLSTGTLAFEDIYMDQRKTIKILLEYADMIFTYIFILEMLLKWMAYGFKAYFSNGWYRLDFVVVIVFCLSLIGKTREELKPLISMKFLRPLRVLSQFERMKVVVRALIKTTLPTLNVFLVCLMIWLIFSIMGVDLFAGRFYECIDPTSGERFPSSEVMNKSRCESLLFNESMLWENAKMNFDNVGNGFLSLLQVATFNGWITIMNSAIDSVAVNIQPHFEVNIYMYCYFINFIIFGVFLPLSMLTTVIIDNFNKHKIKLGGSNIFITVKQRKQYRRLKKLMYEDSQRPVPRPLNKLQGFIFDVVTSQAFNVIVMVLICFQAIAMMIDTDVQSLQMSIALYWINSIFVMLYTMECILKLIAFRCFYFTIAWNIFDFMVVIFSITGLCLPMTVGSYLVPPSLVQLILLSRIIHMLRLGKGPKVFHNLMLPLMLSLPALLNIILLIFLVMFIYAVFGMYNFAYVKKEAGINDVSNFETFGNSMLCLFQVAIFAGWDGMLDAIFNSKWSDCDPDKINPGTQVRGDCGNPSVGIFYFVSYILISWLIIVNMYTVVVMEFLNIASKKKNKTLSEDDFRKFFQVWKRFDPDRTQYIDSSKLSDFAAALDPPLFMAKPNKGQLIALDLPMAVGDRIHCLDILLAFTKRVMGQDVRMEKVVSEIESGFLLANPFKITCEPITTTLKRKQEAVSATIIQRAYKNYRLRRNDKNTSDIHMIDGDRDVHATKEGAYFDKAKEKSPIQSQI

In the case of `C=C[C@H]1C[N@@]2CC[C@H]1C[C@@H]2[C@@H](O)c1ccnc2ccc(OC)cc12` [quinidine], the “inhibition of NaX-QTT currents” value in test [1] (at high μM concentrations) is on record as “equally potent inhibitors”.

Regarding `COc1ccccc1OCC(O)CN1CCN(CC(=O)Nc2c(C)cccc2C)CC1` (stereo not shown) [ranolazine], the “inhibition of NaX-QTT currents” value in test [1] (at concentrations up to 300 μM) is reported as “strong inhibitory effects were not observed”.

On to `NC1=N[C@H](O)[C@H]2[C@H]3O[C@]4(O)O[C@@H]([C@@H](O)[C@@]2(N1)[C@@H]4O)[C@]3(O)CO` [tetrodotoxin], for which the “inhibitory effect on NaX-QTT” value in test [1] was “inhibitory effects”.

Regarding “Construct 24: triple-mutant NaX channel construct (F724Q-I1189T-I1492T) with polar substitutions at three S6-gate lining positions”, the “ionic currents of the construct expressed alone” value in test [2] is reported as “robust ionic currents”. Moreover, the reversal potential result is recorded as “below −100 mV” in test [3] (HEK293T cells, all extracellular cations replaced with NMDG); “+5 mV” in test [3] (HEK293T cells, physiological extracellular solution); around 0 mV in test [3] (symmetrical NaCl/NaCl, ramp −80 to +80 mV, 150 mM Na^+ intracellular). In addition, the “discrimination between monovalent cations” value in test [3] (extracellular monovalent cations 150 mM) was “does not effectively discriminate”.

“Construct 25: L390E/I1189E/I1492E triple-mutant NaX channel construct”: the “ionic currents of the construct expressed alone” value in test [2] is “much lower current amplitudes”.

In the case of “Ser211Pro: pathogenic Ser211Pro mutation in NaV1.7”, in test [4], the “hyperpolarization of channel activation” value is −12 mV.

As to “Ser1269Phe: Ser1269Phe substitution in NaV1.7”, in test [5], the “depolarizing shift of activation” value was around 8 mV.

“ΔLeu966: in-frame DII-S6 deletion in NaV1.7” yielded a hyperpolarization of activation in test [5] of −16 mV.

B1: Ser209Phe: pathogenic Ser209Phe mutation in KCNQ1 (protein, UniProt P51787 1-676, looked up, variant S209F)
Potassium voltage-gated …: MAAASSPPRAERKRWGWGRLPGARRGSAGLAKKCPFSLELAEGGPAGGALYAPIAPGAPGPAPPASPAAPAAPPVASDLGPRPPVSLDPRVSIYSTRRPVLARTHVQGRVYNFLERPTGWKCFVYHFAVFLIVLVCLIFSVLSTIEQYAALATGTLFWMEIVLVVFFGTEYVVRLWSAGCRSKYVGLWGRLRFARKPISIIDLIVVVAFMVVLCVGSKGQVFATSAIRGIRFLQILRMLHVDRQGGTWRLLGSVVFIHRQELITTLYIGFLGLIFSSYFVYLAEKDAVNESGRVEFGSYADALWWGVVTVTTIGYGDKVPQTWVGKTIASCFSVFAISFFALPAGILGSGFALKVQQKQRQKHFNRQIPAAASLIQTAWRCYAAENPDSSTWKIYIRKAPRSHTLLSPSPKPKKSVVVKKKKFKLDKDNGVTPGEKMLTVPHITCDPPEERRLDHFSVDGYDSSVRKSPTLLEVSMPHFMRTNSFAEDLDLEGETLLTPITHISQLREHHRATIKVIRRMQYFVAKKKFQQARKPYDVRDVIEQYSQGHLNLMVRIKELQRRLDQSIGKPSLFISVSEKSKDRGSNTIGARLNRVEDKVTQLDQRLALITDMLHQLLSLHGGSTPGSGGPPREGGAHITQPCGSGGSVDPELFLPSNTLPTYEQLTVPRRGPDEGS
For B1, the “hyperpolarization of channel activation” value in test [4] is −45 mV.
